Several values for one entry are separate records, joined by “and”; a condition that tells them apart may be missing. Equal values may be shown once.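 How tested: cells in 96-well plates exposed to compound for 48 hours at five concentrations. GI50 = concentration required for 50% inhibition of growth. At the TGI there is no net growth.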
Experiments:
Experiment in all cases: NCI tumour cell line growth inhibition, 48 h
[1] = tested on: A549 NSCLC
[2] = tested on: UACC-257 melanoma
[3] = tested on: SNB-19 CNS
[4] = tested on: KM12 colon
[5] = tested on: 786-0 renal
[6] = tested on: SF-295 CNS
[7] = tested on: SF-268 CNS
[8] = tested on: BT-549 breast
[9] = tested on: MOLT-4 leukemia
[10] = tested on: NCI-H460 lung

Row | Compound | GI50 [1] | TGI [1] | GI50 [2] | TGI [2] | GI50 [3] | TGI [3] | GI50 [4] | TGI [4] | GI50 [5] | TGI [5] | GI50 [6] | TGI [6] | GI50 [7] | TGI [7] | GI50 [8] | TGI [8] | GI50 [9] | TGI [9] | GI50 [10] | TGI [10]
1 | C=C(CN1CCN(c2ccccc2F)CC1)c1ccc(C(=O)Nc2ccccc2N)cc1 | 3.52 µM | 35.4 µM | 0.992 µM | 35.3 µM | 3.74 µM | > 100 µM | 1.53 µM | 11.4 µM | 1.88 µM | > 100 µM | 2.38 µM | 18 µM | 2.36 µM | > 100 µM | 1.46 µM | 8.82 µM | 0.549 µM | 4.86 µM | 4.44 µM | > 100 µM
2 | CCc1ccc(CCC(=O)Nc2ncc(Cc3ccccc3)s2)o1 | 4.47 µM | > 100 µM | > 100 µM | > 100 µM | 3.92 µM | > 100 µM | 1.3 µM | > 100 µM | 6.95 µM | > 100 µM | 3.29 µM | > 100 µM | 8.64 µM | > 100 µM | 52.2 µM | > 100 µM | 2.43 µM | > 100 µM | 3.06 µM | > 100 µM
3 | CCN(CC)CCCC(C)Nc1cnc(C(=O)Nc2cc(F)cc3cccnc23)cn1 (stereo not drawn) | 8.14 µM and 2.41 µM | 22.3 µM and 6.28 µM | 1.99 µM and 0.563 µM | 4.13 µM and 1.94 µM | 10.5 µM and 1.73 µM | 22.8 µM and 3.14 µM | 6.09 µM and 1.78 µM | 19.5 µM and 3.34 µM | 8.17 µM and 1.33 µM | 22 µM and 2.7 µM | 12.7 µM and 1.81 µM | 26.4 µM and 3.33 µM | 5.32 µM and 1.56 µM | 20.9 µM and 3.25 µM | 11.1 µM and 1.59 µM | 24 µM and 3 µM | 1.94 µM and 0.496 µM | 6.53 µM and > 43 µM | 4.64 µM and 2.06 µM | 16.6 µM and 4.22 µM
4 | c1cncc(CNc2ccccc2-c2nnc(Nc3ccc4c(c3)OCCO4)o2)c1 | 0.294 µM | > 100 µM | 11.6 µM | > 100 µM | 0.345 µM | > 100 µM | 0.067 µM | 1.86 µM | 0.366 µM | > 100 µM | 0.0936 µM | > 100 µM | 0.646 µM | > 100 µM | 0.861 µM | 53 µM | 0.435 µM | 15.5 µM | 0.148 µM | > 32.5 µM
5 | CN(C)CC#Cc1cccc(C(=O)c2cnn(-c3ccc(F)cc3)c2N)c1 | > 25 µM | > 25 µM | > 25 µM | > 25 µM | > 25 µM | > 25 µM | > 25 µM | > 25 µM | > 25 µM | > 25 µM | > 20.6 µM | > 25 µM | > 25 µM | > 25 µM | > 25 µM | > 25 µM | > 25 µM | > 25 µM | > 25 µM | > 25 µM
6 | CO/N=C1/NC(=O)/C(=C/c2ccc3ncccc3c2)S1 | 10.7 µM | > 25 µM | 18 µM | > 25 µM | 11.6 µM | > 25 µM | > 25 µM | > 25 µM | 23.4 µM | > 25 µM | 19.9 µM | > 25 µM | > 25 µM | > 25 µM | 9.1 µM | > 25 µM | 16.1 µM | > 25 µM | 9.08 µM | > 25 µM
7 | Cc1ccc(NS(=O)(=O)c2cc(C)ccc2C)cc1 | 4.78 µM | 38 µM | 10.2 µM | 47.4 µM | 4.36 µM | > 100 µM | 1.73 µM | 16.5 µM | 10.6 µM | 31.4 µM | 2.62 µM | 19.8 µM | 7 µM | 35.2 µM | 9.62 µM | 27.4 µM | 5.43 µM | > 100 µM | 3.4 µM | 13.5 µM
8 | CCS(=O)(=O)c1ccc(OC)c(Nc2nccc(N(C)c3ccc4c(C)[nH]nc4c3)n2)c1 | 9.83 µM | > 25 µM | 7.57 µM | > 24 µM | 9.74 µM | > 25 µM | 5.7 µM | > 25 µM | 5.79 µM | 18.4 µM | 4.17 µM | 10.4 µM | 4.74 µM | > 17.6 µM | 5.76 µM | 14.5 µM | 6.71 µM | > 25 µM | 8.67 µM | > 25 µM
9 | Clc1cc(Cl)cc(N2N=C(c3cccc(Nc4ccncc4)c3)CC2c2ccc(Br)cc2)c1 (stereo not drawn) | – | – | 1.92 µM | 3.85 µM | 1.63 µM | 3.16 µM | 1.69 µM | 3.18 µM | 1.74 µM | 3.32 µM | 1.79 µM | 3.2 µM | 1.76 µM | 3.58 µM | 1.94 µM | 3.72 µM | 1.95 µM | 4.44 µM | 1.81 µM | 3.51 µM
10 | O=C(Nc1ccncc1)C(=O)c1cn(S(=O)(=O)c2ccccc2F)c2ccccc12 | 13.5 µM | 59.8 µM | 5.51 µM | > 78.4 µM | 7.17 µM | > 80.4 µM | 0.837 µM | > 100 µM | 4.95 µM | 40.9 µM | 2.11 µM | 10.2 µM | 2.32 µM | > 79.3 µM | 4.41 µM | 54.8 µM | 3.45 µM | > 45.7 µM | 6.75 µM | > 100 µM
11 | C#CC[C@H](c1nc2cc(Cl)ccc2c(=O)n1Nc1ccccc1)N(CCCN)C(=O)c1cccc(Cl)c1F | 0.255 µM | 1.87 µM | 1.02 µM | 2.37 µM | 0.52 µM | 7.85 µM | 0.18 µM | 1.63 µM | 1.15 µM | 2.63 µM | 0.353 µM | 1.48 µM | 0.214 µM | 2.61 µM | 0.798 µM | 3.33 µM | 0.264 µM | 2.8 µM | 0.161 µM | 1.31 µM
12 | CC(=O)Oc1cccc2c1C(=O)C(Br)(Br)CCC2 | – | 40 µM | – | 25 µM | – | 25.2 µM | – | 23.2 µM | – | 11.4 µM | – | 31.3 µM | – | 42.7 µM | – | 4.19 µM | – | 13.8 µM | – | 43.6 µM

Source: PubChem BioAssay (NCI)
